Laboratory results published in US20100179188A1, “NITROXIDE RADICAL AS TREATMENT FOR NEURODEGENERATION” (Office of Technology Transfer, NIH, priority 2007, published 2010).

Columns and labels:
[1] = tested on: IRP1; test: Western blot of IRP1 protein in brain-region lysates of IRP2−/− mice; assay type: in vivo; settings: cerebellum, brain-stem and forebrain of IRP2−/− mice, Tempo1 diet vs control diet
Description: Diet: The mice were weaned 3-4 weeks after their birth. Immediately after weaning, mice were maintained on either a Tempo1-supplemented or control diet. In the Tempo1-supplemented diet, powdered Tempo1 was uniformly mixed with bacon-flavored mouse chow by a “cold press” technique (Bio-Serv, Frenchtown, N.J., USA) at a concentration of 10 mg/g of food. Bacon-flavored chow without Tempo1 was used as the control diet.
Tissue and lysate preparation: Animals were euthanized and tissues were frozen in liquid nitrogen immediately after harvesting, and stored at −80° C. under argon. Experiments were performed on tissues that were pulverized in liquid N2-cooled mortars in an anaerobic chamber, and then lysed in lysis buffer that was deaerated by cyclic freezethaw and air-removal with argon. […]
Lysates made from various brain regions of IRP2−/− mice that were maintained on a control diet or on a Tempo1-supplemented diet were analyzed for IRE binding activity of IRP1 and for TfR1, IRP1, and actin protein levels by gel-shift assay and Western blot. […] FIG. 3b is a quantification of the results as intensity of the bands relative to the control, represented here as 100%. Quantification was performed with the IQMac (IRP1 activity) or NIH Image (protein levels) program. Error bars represent the standard deviation calculated from the results of two different sets of animals.

[2] = molecular target: T1, IRP1 (Mus musculus, UniProt P28271); test: Gel-shift of IRP1 in wild type and IRP2−/− mouse embryonic fibroblasts after Tempo1 or DFO and washout; assay type: cell-based; set-up: Embryonic fibroblasts of 13-day old embryos were isolated from wild type, IRP1−/− mice and IRP2−/− mice; endogenous in cells; host or cells: mouse embryonic fibroblasts (wild type and IRP2−/−)
T1 sequence (P28271 1-889): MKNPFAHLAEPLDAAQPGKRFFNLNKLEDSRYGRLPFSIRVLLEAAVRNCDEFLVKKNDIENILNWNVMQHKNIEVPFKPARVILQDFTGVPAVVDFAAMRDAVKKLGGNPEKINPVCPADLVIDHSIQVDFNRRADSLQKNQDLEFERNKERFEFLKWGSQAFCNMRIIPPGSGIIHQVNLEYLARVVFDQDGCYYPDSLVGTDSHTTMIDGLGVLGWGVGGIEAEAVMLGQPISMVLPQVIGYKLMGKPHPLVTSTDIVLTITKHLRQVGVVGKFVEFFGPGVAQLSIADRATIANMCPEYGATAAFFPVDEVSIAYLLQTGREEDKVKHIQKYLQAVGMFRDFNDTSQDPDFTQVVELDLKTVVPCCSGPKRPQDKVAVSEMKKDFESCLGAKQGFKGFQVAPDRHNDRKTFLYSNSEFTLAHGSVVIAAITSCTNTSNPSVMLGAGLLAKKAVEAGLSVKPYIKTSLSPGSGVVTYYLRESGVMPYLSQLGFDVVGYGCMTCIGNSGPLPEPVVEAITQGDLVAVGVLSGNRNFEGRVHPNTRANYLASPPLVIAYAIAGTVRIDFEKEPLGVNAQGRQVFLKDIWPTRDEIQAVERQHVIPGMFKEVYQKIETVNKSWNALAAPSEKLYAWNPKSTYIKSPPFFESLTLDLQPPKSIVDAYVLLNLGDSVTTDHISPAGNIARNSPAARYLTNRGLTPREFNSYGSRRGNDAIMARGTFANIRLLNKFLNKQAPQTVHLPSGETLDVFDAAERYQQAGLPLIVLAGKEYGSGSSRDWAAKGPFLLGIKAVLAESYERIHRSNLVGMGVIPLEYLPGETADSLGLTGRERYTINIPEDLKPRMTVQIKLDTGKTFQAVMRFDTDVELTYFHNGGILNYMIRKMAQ
Description: Cells: Embryonic fibroblasts of 13-day old embryos were isolated from wild type, IRP1−/− mice and IRP2−/− mice as described in LaVaute et al. supra. Myc-tagged HEK 293 Tet-on cell line, in which IRP2 expression was inducible, was prepared and cultured as described Bourdon et al., Blood Cells Mol Dis, 31, 247-255 (2003). Erythroblasts were harvested from bone marrow and purified as described in Cooperman et al., Blood, 106, 1084-1091 (2005).
RNA mobility shift assays: Gel retardation assays were performed as described in Meyron-Holtz et al., EMBO J, 23, 386-395 (2004). Tissue lysates were prepared in an anaerobic chamber as described above in oxygen-depleted lysis buffer containing 10 mM HEPES (pH 7.2), 3 mM MgC12, 40 mM KCl, 5% glycerol, 0.2% Nonidet P-40, 5 mM DTT, 1 mM AEBSF, 10 μg/ml. Leupeptin and complete TM EDTA free protease inhibitor cocktail (Roche Applied Science, Indiana). Lysate (x μl) containing 10 μg of total protein was added to (12.5−x) μl of bandshift buffer containing 25 mM Tris-HCl (pH 7.5) and 40 mM KCl. The samples were incubated for 5 min at room temperature (RT) with 12.5 μl of a reaction cocktail containing 20% glycerol, 0.2 U/μl Super RNAsine (Ambion, Tex.), 0.6 μg/μl yeast t-RNA, 5 mM DTT and 20 nM 32P-labelled IRE from human ferritin H-chain gene in 25 mM Tris-HCl (pH 7.5) and 40 mM KCl. A measure of 20 μl of this reaction mixture was loaded into a 10% acrylamide/TBE gel, which was run at 200 V for 2.15 h, and then the gel was fixed, dried and exposed for autoradiography.
To determine whether the effect of Tempo1 on IRP1 activity was kinetically consistent with oxidative disassembly of the iron sulfur cluster, the effect of Tempo1 on aconitase activity was compared to that of the iron chelator, deferiprone (DFO), which activates IRE-binding activity of IRP1 by limiting de novo synthesis and repair of the iron sulfur cluster in IRP1. […] Recovery of aconitase activity was assessed in wild type and IRP2−/− cells.

CC1(C)CC(O)CC(C)(C)N1[O] [Tempo1]
IRP1 protein levels [1]: did not significantly change | time to reversal of the activation of IRE-binding activity after removal ([2]; mouse embryonic fibroblasts, 16 hours treatment, then fresh unsupplemented media): ≤ 2 h | IRE-binding activity of IRP1 ([2]; wild type and IRP2−/− mouse embryonic fibroblasts treated 16 hours): activated
